Assay [1] concerns the target NMDA receptor. It counts as binding, rat.
Assay [2] concerns the target rat α7-nicotinic acetylcholine receptor (Rattus norvegicus, UniProt Q05941). It counts as cell-based.
Assay [3] deals with rat α3β4-nicotinic acetylcholine receptor (Rattus norvegicus, UniProt P04757+P12392). It is filed as cell-based. Particulars: read-out: IC50, inhibition of (S)-nicotine-induced whole-cell current.
In assay [4] the target is α4β2-nicotinic acetylcholine receptor (Homo sapiens, UniProt P17787+P43681). The assay is described as follows: Acetylcholine-evoked currents in α4β2-nicotinic acetylcholine receptor. It counts as cell-based.
α4β2-nicotinic acetylcholine receptor, sequence (P43681 29-627 limits assumed): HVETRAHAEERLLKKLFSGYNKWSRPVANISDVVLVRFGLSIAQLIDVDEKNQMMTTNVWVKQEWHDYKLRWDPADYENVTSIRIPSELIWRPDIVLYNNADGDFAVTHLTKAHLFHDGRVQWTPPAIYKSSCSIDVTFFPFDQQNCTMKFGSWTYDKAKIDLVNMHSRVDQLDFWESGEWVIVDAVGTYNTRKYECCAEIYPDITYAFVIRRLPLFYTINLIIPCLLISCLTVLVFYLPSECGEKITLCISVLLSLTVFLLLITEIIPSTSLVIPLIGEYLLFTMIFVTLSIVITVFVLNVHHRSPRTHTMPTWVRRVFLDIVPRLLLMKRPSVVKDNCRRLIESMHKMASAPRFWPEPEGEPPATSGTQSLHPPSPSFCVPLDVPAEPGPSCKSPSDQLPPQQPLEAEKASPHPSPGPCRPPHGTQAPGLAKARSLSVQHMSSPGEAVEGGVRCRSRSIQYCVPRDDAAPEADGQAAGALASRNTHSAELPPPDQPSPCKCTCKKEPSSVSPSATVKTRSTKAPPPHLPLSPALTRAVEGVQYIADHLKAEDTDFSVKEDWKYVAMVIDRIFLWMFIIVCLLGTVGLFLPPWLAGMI
α4β2-nicotinic acetylcholine receptor, sequence (P17787 26-502 limits assumed): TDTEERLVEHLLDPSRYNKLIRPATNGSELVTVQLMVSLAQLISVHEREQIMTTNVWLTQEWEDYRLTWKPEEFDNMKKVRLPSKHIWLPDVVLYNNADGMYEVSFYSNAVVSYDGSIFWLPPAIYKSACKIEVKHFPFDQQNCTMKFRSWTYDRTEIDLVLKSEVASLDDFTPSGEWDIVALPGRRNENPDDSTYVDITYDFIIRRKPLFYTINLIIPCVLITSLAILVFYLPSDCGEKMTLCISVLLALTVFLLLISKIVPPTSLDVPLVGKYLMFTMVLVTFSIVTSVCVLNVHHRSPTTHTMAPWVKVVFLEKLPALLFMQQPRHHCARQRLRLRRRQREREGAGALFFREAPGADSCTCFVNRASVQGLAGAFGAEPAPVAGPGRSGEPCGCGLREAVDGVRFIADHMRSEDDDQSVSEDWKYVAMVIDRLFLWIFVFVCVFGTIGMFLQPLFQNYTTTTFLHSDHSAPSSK
Assay [5] has as its target α7-nicotinic acetylcholine receptor (Rattus norvegicus, UniProt Q05941). It is filed as binding.
For assay [6] the following is noted: human, in vivo; cited from earlier work.

Where “and” joins values, the source holds several entries; their conditions need not be identical. Equal values may be shown once. Entries after “also recorded” stand apart in the source; their conditions may differ. Read-outs that look alike come from different tables or passages of the source.

rat α7-nicotinic acetylcholine receptor, sequence (Q05941 23-502): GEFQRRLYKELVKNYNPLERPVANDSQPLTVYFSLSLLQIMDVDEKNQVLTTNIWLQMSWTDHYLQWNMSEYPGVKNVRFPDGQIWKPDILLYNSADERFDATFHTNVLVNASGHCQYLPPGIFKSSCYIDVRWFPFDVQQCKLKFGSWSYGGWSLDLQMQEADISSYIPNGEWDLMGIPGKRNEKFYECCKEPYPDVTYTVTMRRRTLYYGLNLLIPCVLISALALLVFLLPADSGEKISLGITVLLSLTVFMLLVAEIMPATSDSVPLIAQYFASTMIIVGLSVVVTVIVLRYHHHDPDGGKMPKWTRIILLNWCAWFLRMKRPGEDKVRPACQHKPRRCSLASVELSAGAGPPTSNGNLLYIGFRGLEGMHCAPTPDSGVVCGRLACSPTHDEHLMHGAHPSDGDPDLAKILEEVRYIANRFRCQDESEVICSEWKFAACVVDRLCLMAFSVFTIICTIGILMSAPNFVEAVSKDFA
α7-nicotinic acetylcholine receptor, sequence (Q05941 23-502): as above
rat α3β4-nicotinic acetylcholine receptor, sequence (P04757 26-499): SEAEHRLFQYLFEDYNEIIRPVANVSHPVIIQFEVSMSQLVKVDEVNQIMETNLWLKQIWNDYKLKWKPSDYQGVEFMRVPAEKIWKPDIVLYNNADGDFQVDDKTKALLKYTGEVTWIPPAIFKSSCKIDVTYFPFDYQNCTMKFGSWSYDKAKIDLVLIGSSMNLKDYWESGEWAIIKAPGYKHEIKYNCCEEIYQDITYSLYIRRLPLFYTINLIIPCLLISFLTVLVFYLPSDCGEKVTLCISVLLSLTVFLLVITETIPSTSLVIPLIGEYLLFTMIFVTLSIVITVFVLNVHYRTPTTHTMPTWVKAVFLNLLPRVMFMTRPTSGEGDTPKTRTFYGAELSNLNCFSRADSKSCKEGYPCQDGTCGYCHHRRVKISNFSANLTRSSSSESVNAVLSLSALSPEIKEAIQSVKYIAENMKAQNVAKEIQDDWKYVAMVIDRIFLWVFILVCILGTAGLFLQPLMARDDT
rat α3β4-nicotinic acetylcholine receptor, sequence (P12392 21-495): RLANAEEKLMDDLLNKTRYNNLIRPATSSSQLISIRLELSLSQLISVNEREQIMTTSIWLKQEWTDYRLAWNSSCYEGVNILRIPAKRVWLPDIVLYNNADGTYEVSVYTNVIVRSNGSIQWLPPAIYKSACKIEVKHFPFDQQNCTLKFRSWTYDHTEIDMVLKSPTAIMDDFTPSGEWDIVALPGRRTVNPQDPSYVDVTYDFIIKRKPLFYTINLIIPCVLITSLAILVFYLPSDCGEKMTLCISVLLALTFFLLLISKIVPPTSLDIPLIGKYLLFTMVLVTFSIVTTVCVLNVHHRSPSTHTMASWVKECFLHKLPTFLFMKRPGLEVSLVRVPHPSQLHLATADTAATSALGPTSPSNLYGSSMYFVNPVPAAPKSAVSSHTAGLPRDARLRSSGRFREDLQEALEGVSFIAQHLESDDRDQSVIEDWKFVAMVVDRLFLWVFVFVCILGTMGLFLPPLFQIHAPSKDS

With `N[C@@]1(c2ccccc2Cl)CCC[C@@H](O)C1=O` [(2R,6R)-hydroxynorketamine], the inhibition constant (Ki) in assay [1] is more than 100 µM. In addition, in assay [2], the “Mean current evoked by 280 μM acetylcholine, normalized to acetylcholine alone” value was 0.354 and 0.489. Besides, the IC50 in assay [3] is more than 200 µM.

Take `NC1(c2ccccc2Cl)CCCCC1=O` (racemic) [(R,S)-norketamine]: the “Inhibition of acetylcholine-induced current” value in assay [2] (100 nM compound, 280 μM acetylcholine) is ~ 45%. Also, the “Mean current evoked by 280 μM acetylcholine, normalized to acetylcholine alone” value is recorded as 0.548 in assay [2] (100 nM compound, −80 mV, n = 4, fraction of current remaining) and 0.287 in assay [2] (1000 nM compound, −80 mV, n = 4, fraction of current remaining). Besides, the 50% inhibitory concentration (IC50) in assay [3] came to 9.1 µM.

Turning to `N[C@@]1(c2ccccc2Cl)CCCCC1=O` [(R)-norKetamine, (R)-norketamine], the Ki in assay [1] worked out at 26.5 µM.

For `NC1(c2ccccc2Cl)CCC=CC1=O` (racemic) [(R,S)-dehydronorketamine], in assay [2], the “Current activation (agonist effect)” value is on record as “No measurable effect”; the “Hill coefficient nH” value is 0.66 ± 0.05; the “Inhibition of acetylcholine-induced current” value was ~ 60%; the “Mean current evoked by 280 μM acetylcholine, normalized to acetylcholine alone” value was 0.407 and 0.205. Further, in assay [2], the “Voltage dependence of the inhibitory effect” value is “voltage-independent”. Moreover, in assay [2] (0.03 µM), the “Inhibition of ACh-induced whole-cell current” value is given as 45%. In addition, in assay [2] (read-out: IC50, inhibition of acetylcholine-evoked current), the IC50 is 0.055 ± 0.006 µM. The “Effect on acetylcholine-evoked currents” value in assay [4] was “no effect”. The IC50 in assay [3] is more than 200 µM. Also, in assay [5], the “Displacement of [3H]-epibatidine” value was “did not competitively displace” and the “Displacement of [125I]-α-bungarotoxin” value is reported as “did not competitively displace”.

On to `N[C@]1(c2ccccc2Cl)CCCCC1=O` [(S)-norKetamine, (S)-norketamine], for which, in assay [1], the affinity, expressed as Ki, was 2.25 ± 0.22 µM.

In the case of `N[C@]1(c2ccccc2Cl)CCC=CC1=O` [(S)-Dehydronorketamine, (S)-dehydronorketamine], in assay [1], the affinity corresponds to a Ki of 39 µM. Also, in assay [5], the “Displacement of [3H]-epibatidine” value is reported as “not displaced” and the “Displacement of [125I]-α-bungarotoxin” value is “did not displace”.

Consider `N[C@]1(c2ccccc2Cl)CCC[C@H](O)C1=O` [(2S,6S)-hydroxynorketamine], for which the Ki in assay [1] is 21 µM and 21.2 µM. The “Mean current evoked by 280 μM acetylcholine, normalized to acetylcholine alone” value in assay [2] is 0.461 and 0.361. Moreover, the IC50 in assay [3] was more than 200 µM.

In turn, `N[C@@]1(c2ccccc2Cl)CCC=CC1=O` [(R)-Dedhydronorketamine, (R)-dehydronorketamine] returned an inhibitory constant (Ki) in assay [1] of 74.5 µM. For the same compound, in assay [5], the “Displacement of [3H]-epibatidine” value is listed as “not displaced” and the “Displacement of [125I]-α-bungarotoxin” value was “did not displace”.

Consider `CNC1(c2ccccc2Cl)CCCCC1=O` (racemic) [(R,S)-Ketamine, reference compound], for which, in assay [6], the “Patients reporting a positive response” value is 41% and the Response rate is 30%. Besides, the “Effect on acetylcholine-induced current” value in assay [2] was “inactive; also recorded: no observable effect”. In addition, the IC50 in assay [3] came to 3.1 µM.
